“And” between values parts separate entries of the source, which are not always exact repeats. Identical values can stand only once. Like-named read-outs stand apart in the source and are kept apart here.
Tests used:
[1] = CellTiter‐Glo assay (cytotoxicity); details: human, WI-26 VA4 cells
Experimental: (§1) After 24 h, the cells were incubated with various concentrations of compounds for 48 h. The level of ATP as a measure of cell viability was determined using a CellTiter‐Glo® luminescent cell viability assay kit (Promega, G7571) following the manufacturer's instructions.
(§2) WI‐26 VA4 cells were seeded at 1.2 × 10^4 cells/well in 96‐well white plates. After 24 h, the cells were incubated with the indicated concentrations of compounds for 72 h. The viability was determined as described above.

WI‐26 VA4 cells = assay: CellTiter‐Glo assay (cytotoxicity)
Experimental: as §1, §2

phosphorylation of SMAD2 = assay: Phosphorylation of SMAD2 (TGF‐β pathway), immunoblot; type: cell-based, human; details: 15 h; for Relative ratio of p-SMAD2/SMAD2, average / Relative ratio of p-SMAD2/SMAD2: + TGF-β; for Relative ratio of p-SMAD2/SMAD2: single experiments
Experimental: The levels of proteins were determined by immunoblot assay. […] The lowest concentration at which protein levels started to decrease was normalized by IC50 values for collagen level and used as the y‐axis value. […] The slope and R^2 value were calculated using GraphPad Prism 7.0. […] The activation of the TGF‐β pathway was determined by monitoring the phosphorylation of SMAD2. Immunoblot images are representative of three biologically independent experiments. • The band intensities of the immunoblot images in (C) were quantified using ImageJ (n = 3; One‐way ANOVA; *P < 0.05, **P < 0.01, ***P < 0.001; mean ± SEM). Source data are available online for this figure.

[2] = test system: TNT Quick Coupled Transcription/Translation System (luciferase synthesis); type: biochemical

Compound: O[C@H]1CCCN[C@@H]1CCCn1cnc2c(Cl)c(Cl)ccc21 [DWN12088]
- CC50 at 72 h ([1]; CC50 (CellTiter-Glo), 72 h (Fig 5B)): 20.3 µM
- CC50 at 72 h ([1]; CC50, 72 h (Fig 1B)): 20.8 µM
- CC50 fold versus HF (WI‐26 VA4 cells; Fig 1B): ~ 397 fold
- activity at 0.01 µM (WI‐26 VA4 cells; Homo sapiens, WI26VA4, read-out: CellTiter-Glo % of control, 10 nM, Experiment #1, replicates): 107%
- activity at 0.01 µM (WI‐26 VA4 cells; Homo sapiens, WI26VA4, read-out: CellTiter-Glo % of control, 10 nM, Experiment #2, replicates): 105%
- activity at 0.03 µM (WI‐26 VA4 cells; Homo sapiens, WI26VA4, read-out: CellTiter-Glo % of control, 30 nM, Experiment #1, replicates): 95.8%
- activity at 0.03 µM (WI‐26 VA4 cells; Homo sapiens, WI26VA4, read-out: CellTiter-Glo % of control, 30 nM, Experiment #2, replicates): 108%
- activity at 0.1 µM (WI‐26 VA4 cells; Homo sapiens, WI26VA4, read-out: CellTiter-Glo % of control, 100 nM, Experiment #1, replicates): 107%
- activity at 0.1 µM (WI‐26 VA4 cells; Homo sapiens, WI26VA4, read-out: CellTiter-Glo % of control, 100 nM, Experiment #2, replicates): 107%
- activity at 0.3 µM (WI‐26 VA4 cells; Homo sapiens, WI26VA4, read-out: CellTiter-Glo % of control, 300 nM, Experiment #1, replicates): 109%
- activity at 0.3 µM (WI‐26 VA4 cells; Homo sapiens, WI26VA4, read-out: CellTiter-Glo % of control, 300 nM, Experiment #2, replicates): 102%
- activity at 1 µM (WI‐26 VA4 cells; Homo sapiens, WI26VA4, read-out: CellTiter-Glo % of control, 1000 nM, Experiment #1, replicates): 106%
- activity at 1 µM (WI‐26 VA4 cells; Homo sapiens, WI26VA4, read-out: CellTiter-Glo % of control, 1000 nM, Experiment #2, replicates): 105%
- activity at 3 µM (WI‐26 VA4 cells; Homo sapiens, WI26VA4, read-out: CellTiter-Glo % of control, 3000 nM, Experiment #1, replicates): 88.2%
- activity at 3 µM (WI‐26 VA4 cells; Homo sapiens, WI26VA4, read-out: CellTiter-Glo % of control, 3000 nM, Experiment #2, replicates): 90.3%
- activity at 10 µM (WI‐26 VA4 cells; Homo sapiens, WI26VA4, read-out: CellTiter-Glo % of control, 10000 nM, Experiment #1, replicates): 71.7%
- activity at 10 µM (WI‐26 VA4 cells; Homo sapiens, WI26VA4, read-out: CellTiter-Glo % of control, 10000 nM, Experiment #2, replicates): 92%
- activity at 30 µM (WI‐26 VA4 cells; Homo sapiens, WI26VA4, read-out: CellTiter-Glo % of control, 30000 nM, Experiment #1, replicates): 34.8%
- activity at 30 µM (WI‐26 VA4 cells; Homo sapiens, WI26VA4, read-out: CellTiter-Glo % of control, 30000 nM, Experiment #2, replicates): 38.4%
- activity at 100 µM (WI‐26 VA4 cells; Homo sapiens, WI26VA4, read-out: CellTiter-Glo % of control, 100000 nM, Experiment #1, replicates): 26.4%
- activity at 100 µM (WI‐26 VA4 cells; Homo sapiens, WI26VA4, read-out: CellTiter-Glo % of control, 100000 nM, Experiment #2, replicates): 20.9%
- activity at 0.01 µM (WI‐26 VA4 cells; Homo sapiens, WI26VA4, read-out: CellTiter-Glo % of control, average, 10 nM, average): 104%
- activity at 0.03 µM (WI‐26 VA4 cells; Homo sapiens, WI26VA4, read-out: CellTiter-Glo % of control, average, 30 nM, average): 104%
- activity at 0.1 µM (WI‐26 VA4 cells; Homo sapiens, WI26VA4, read-out: CellTiter-Glo % of control, average, 100 nM, average): 109%
- activity at 0.3 µM (WI‐26 VA4 cells; Homo sapiens, WI26VA4, read-out: CellTiter-Glo % of control, average, 300 nM, average): 108%
- activity at 1 µM (WI‐26 VA4 cells; Homo sapiens, WI26VA4, read-out: CellTiter-Glo % of control, average, 1000 nM, average): 102%
- activity at 3 µM (WI‐26 VA4 cells; Homo sapiens, WI26VA4, read-out: CellTiter-Glo % of control, average, 3000 nM, average): 84.7%
- activity at 10 µM (WI‐26 VA4 cells; Homo sapiens, WI26VA4, read-out: CellTiter-Glo % of control, average, 10000 nM, average): 77.5%
- activity at 30 µM (WI‐26 VA4 cells; Homo sapiens, WI26VA4, read-out: CellTiter-Glo % of control, average, 30000 nM, average): 34.6%
- activity at 100 µM (WI‐26 VA4 cells; Homo sapiens, WI26VA4, read-out: CellTiter-Glo % of control, average, 100000 nM, average): 22.4%
- activity at 300 µM (WI‐26 VA4 cells; Homo sapiens, WI26VA4, read-out: CellTiter-Glo % of control, average, 300000 nM, average): 1.88%
- activity at 1000 µM (WI‐26 VA4 cells; Homo sapiens, WI26VA4, read-out: CellTiter-Glo % of control, average, 1000000 nM, average): 0.11%
- CellTiter-Glo LogIC50 (best-fit value) (WI‐26 VA4 cells; log(inhibitor) vs. response, variable slope (four parameters), concentration in nM): 4.308
- Relative ratio of p-SMAD2/SMAD2, average (phosphorylation of SMAD2; 0.2 μM): 0.76
- Relative ratio of p-SMAD2/SMAD2 (phosphorylation of SMAD2; 0.2 μM): 0.61 and 0.94 and 0.72
- Relative ratio of p-SMAD2/SMAD2, average (phosphorylation of SMAD2; 0.6 μM): 0.75
- Relative ratio of p-SMAD2/SMAD2 (phosphorylation of SMAD2; 0.6 μM): 0.65 and 0.71 and 0.87
- Relative ratio of p-SMAD2/SMAD2, average (phosphorylation of SMAD2; 2 μM): 0.70
- Relative ratio of p-SMAD2/SMAD2 (phosphorylation of SMAD2; 2 μM): 0.48 and 0.69 and 0.92
- Relative ratio of p-SMAD2/SMAD2, average (phosphorylation of SMAD2; 6 μM): 0.78
- Relative ratio of p-SMAD2/SMAD2 (phosphorylation of SMAD2; 6 μM): 0.66 and 0.77 and 0.91
- Relative ratio of p-SMAD2/SMAD2, average (phosphorylation of SMAD2; 20 μM): 0.41
- Relative ratio of p-SMAD2/SMAD2, average (phosphorylation of SMAD2; 60 μM): 0.16
- SMAD2 phosphorylation (phosphorylation of SMAD2; TGF‐β 2 ng/ml): reduced SMAD2 phosphorylation
- TNT-luciferase % of control ([2]; 2000 nM, Experiment #1, replicates, 2 µM): 107.63 % of control and 97.97 % of control and 101.55 % of control
- TNT-luciferase % of control ([2]; 2000 nM, Experiment #2, replicates, 2 µM): 104.64 % of control and 94.62 % of control and 88.50 % of control
- TNT-luciferase % of control, average ([2]; 2000 nM): 99.15 % of control
- TNT-luciferase % of control ([2]; 6000 nM, Experiment #1, replicates, 6 µM): 101.91 % of control and 104.41 % of control and 119.43 % of control
- TNT-luciferase % of control ([2]; 6000 nM, Experiment #2, replicates, 6 µM): 96.85 % of control and 102.97 % of control and 104.64 % of control
- TNT-luciferase % of control, average ([2]; 6000 nM): 105.03 % of control
- TNT-luciferase % of control ([2]; 20000 nM, Experiment #1, replicates, 20 µM): 72.94 % of control (2×) and 59.71 % of control
- TNT-luciferase % of control ([2]; 20000 nM, Experiment #2, replicates, 20 µM): 84.60 % of control (2×) and 85.71 % of control
- TNT-luciferase % of control, average ([2]; 20000 nM): 76.75 % of control
- TNT-luciferase % of control ([2]; 60000 nM, Experiment #1, replicates, 60 µM): 38.97 % of control and 46.84 % of control and 41.48 % of control
- TNT-luciferase % of control ([2]; 60000 nM, Experiment #2, replicates, 60 µM): 51.21 % of control and 53.71 % of control and 53.43 % of control
- TNT-luciferase % of control, average ([2]; 60000 nM): 47.61 % of control
- TNT-luciferase % of control ([2]; 200000 nM, Experiment #1, replicates, 200 µM): 1.16 % of control and 1.03 % of control and 1.24 % of control
- TNT-luciferase % of control ([2]; 200000 nM, Experiment #2, replicates, 200 µM): 6.68 % of control and 5.56 % of control and 5.68 % of control
- TNT-luciferase % of control, average ([2]; 200000 nM): 3.56 % of control
- TNT-luciferase % of control ([2]; 600000 nM, Experiment #1, replicates, 600 µM): 0.00561 % of control and 0.00168 % of control and 0.00107 % of control
- TNT-luciferase % of control ([2]; 600000 nM, Experiment #2, replicates, 600 µM): 0.24 % of control and 0.28 % of control and 0.27 % of control
- TNT-luciferase % of control, average ([2]; 600000 nM): 0.13 % of control
